According to US20190136191A1, “Methods of Producing Specialized Cardio-Like Cells from Stem Cells” (Emory University, priority 2016, published 2019):

Key:
Human ESCs (H9) [1] = test: Pan-cardiac myocyte lineage formation from hESCs (cTnT+ cells); format: cell-based
From the text: (§1) Human ESCs (H9) were differentiated to cardiac lineage by treatment with Activin A, BMP4 and bFGF (ABF, control group) for two days (day 1-2) Mesoderm formation was identified by brachyury (T)+ cells, and the ensuing pan-cardiac myocyte lineage was marked by cTnT+ cells. In control, this process was highly efficient, reaching 75% and 82%, respectively. […] In contrast, late (day 6-9) activation of RA (Late-RA) led to >90% cTnT+ population. […] Furthermore, the Late-RA cardiomyocytes expressed higher transcript and protein levels of the first heart field (FHF) markers, NKX2.5, TBX5 and HCN4.

Human ESCs (H9) [2] = test: Mesoderm formation during cardiac differentiation of hESCs (brachyury (T)+ cells); format: cell-based
From the text: as §1

hESCs = test: Differentiation protocols of hESCs to cardio-like cell subtypes (AFB, AFB+RA, Ri+AFB+RA); format: cell-based, human
Experimental: To create the cardio-like cells from hESCs, at the early stage (day 0-3), hESCs were treated with ActivinA, bFGF and BMP4 to induce mesoderm and cardiac mesoderm cells generation. […] Wnt inhibitor promoted cardiac progenitor cells into cardio-like cells during day 5-11.
To create atrial-like cells from hESCs, at the early stage (day 0-3), hESCs were treated with ActivinA, bFGF and BMP4 to induce mesoderm and cardiac mesoderm cells generation. […] Wnt inhibitor promoted differentiation of cardiac progenitor cells into cardio-like cells during day 5-11.
To create first heart field (FHF) derived left ventricular-like cells from hESCs, at the early stage (day 0-3), hESCs were treated with ActivinA, bFGF, BMP4 and additional short time (day 0-1) treatment of BMS4.93(Ri) to induce mesoderm and cardiac mesoderm cells generation. […] Wnt inhibitor promoted cardiac progenitor cells into cardiomyocytes during day 5-11.

Human ESCs (H9) [3] = test: Chamber and heart field marker expression in hESC-derived cardiomyocytes; format: cell-based
From the text: IRX4 and HRT2 are ventricular marker. CoupTFII is an atrial marker. NKX2.5, TBX5, HCN4 are markers of the first heart field, which becomes the left ventricular and atrial cardiac myocytes.
Is11, Mef2c, Fgf8, and Fgf10 are markers of the second heart field, which become right ventricular cardiac myocytes.
as §1
Reported are specific and robust derivation of the left ventricular-like cells by activating RA signaling during the late stage of hESC differentiation.

[4] = Late-RA cardiomyocytes compared to control
[5] = early inhibition of RA signaling

## CC(C=CC1=C(C)CCCC1(C)C)=CC=CC(C)=CC(=O)O [RA, 3,7-dimethyl-9-(2,6,6-trimethylcyclohexen-1-yl)nona-2,4,6,8-tetraenoic acid]
Human ESCs (H9) [1]; late (day 6-9) activation of RA (Late-RA)
  cTnT+ population: > 90%
Human ESCs (H9) [2]; early activation of RA
  Generation of mesoderm lineage: failed to generate mesoderm lineage
hESCs; AFB+RA protocol, RA during day 5-8, no early RA inhibitor
  Cell subtype specified: specified atria-like subtypes
hESCs; Ri+AFB+RA protocol, RA during day 5-8 after Ri day 0-1
  Cell subtype specified: specified first heart field (FHF) derived left ventricular-like cell subtypes
Human ESCs (H9) [3]; Late-RA cardiomyocytes
  First heart field marker HCN4 transcript and protein levels: higher
  First heart field marker NKX2.5 transcript and protein levels: higher
  First heart field marker TBX5 transcript and protein levels: higher
Human ESCs (H9) [3]; [4]
  Atrial marker CoupTFII expression: down-regulated
  Second heart field marker FGF8 expression: downregulated
  Second heart field marker FGF10 expression: downregulated
  Second heart field marker ISL1 expression: downregulated
  Ventricular marker HRT2 expression: up-regulated
  Ventricular marker IRX4 expression: up-regulated

## CC1(C)CC=C(C#Cc2ccccc2)c2cc(/C=C/c3ccc(C(=O)O)cc3)ccc21 [BMS-189493, (E)-4-(2-(5,5-dimethyl-8-(phenylethynyl)-5,6-dihydronaphthalen-2-yl)vinyl)benzoic acid]
Human ESCs (H9) [1]; [5]
  Mesodermal cells that failed to become cardiac myocytes: 86%
Human ESCs (H9) [2]; [5]
  Mesoderm induction: increased mesoderm induction

B1: Noggin: secreted protein that binds and inactivates TGF-beta superfamily signaling proteins (protein, UniProt Q13253 28-232, looked up)
Noggin: QHYLHIRPAPSDNLPLVDLIEHPDPIFDPKEKDLNETLLRSLLGGHYDPGFMATSPPEDRPGGGGGAAGGAEDLAELDQLLRQRPSGAMPSEIKGLEFSEGLAQGKKQRLSKKLRRKLQMWLWSQTFCPVLYAWNDLGSRFWPRYVKVGSCFSKRSCSVPEGMVCKPSKSVHLTVLRWRCQRRGGQRCGWIPIQYPIISECKCSC
hESCs; Noggin treatment during day 3-5
  Effect on cardiac lineage cells: expanded more cardiac lineage cells
